Source: PubChem BioAssay AID1963833 (Molecular Pharmacology Branch, DTP, NCI, 2024)

Test system: 883617-216-R-J1-PDC complex spheroid viability
Experiment: Anticancer human tumor 883617-216-R-J1-PDC patient-derived bladder carcinoma cell line growth inhibition [POLQ]
Conditions: for IC50: curve of first compound; for viability, T/C: stronger effect = lower value
How it was run: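 Patient-derived tumour cells were co-cultured with HUVEC and mesenchymal stem cells as multicellular spheroids at 37 °C. They were treated with POLQ inhibitors (novobiocin, ART-558, RP6685) alone or combined with other agents. Top concentrations were at or near clinical Cmax (otherwise 10 microM; SN-38 at 1 microM), decreasing in half-log steps.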

[1] = second compound 0.0316 µM, first compound 0.0316 µM
[2] = second compound 0.0316 µM, first compound 0.1 µM
[3] = second compound 0.1 µM, first compound 0.0316 µM
[4] = second compound 0.1 µM, first compound 0.1 µM
[5] = second compound 0.316 µM, first compound 0.0316 µM
[6] = second compound 0.316 µM, first compound 0.1 µM
[7] = second compound 1 µM, first compound 0.0316 µM
[8] = second compound 1 µM, first compound 0.1 µM
[9] = second compound 3.16 µM, first compound 0.0316 µM
[10] = second compound 3.16 µM, first compound 0.1 µM
[11] = second compound 10 µM, first compound 0.0316 µM
[12] = second compound 10 µM, first compound 0.1 µM
[13] = second compound 0.0316 µM, first compound 0.316 µM
[14] = second compound 0.0316 µM, first compound 1 µM
[15] = second compound 0.0316 µM, first compound 3.16 µM
[16] = second compound 0.0316 µM, first compound 10 µM
[17] = second compound 0.1 µM, first compound 0.316 µM
[18] = second compound 0.1 µM, first compound 1 µM
[19] = second compound 0.1 µM, first compound 3.16 µM
[20] = second compound 0.1 µM, first compound 10 µM
[21] = second compound 0.316 µM, first compound 0.316 µM
[22] = second compound 0.316 µM, first compound 1 µM
[23] = second compound 0.316 µM, first compound 3.16 µM
[24] = second compound 0.316 µM, first compound 10 µM
[25] = second compound 1 µM, first compound 0.316 µM
[26] = second compound 1 µM, first compound 1 µM
[27] = second compound 1 µM, first compound 3.16 µM
[28] = second compound 1 µM, first compound 10 µM
[29] = second compound 3.16 µM, first compound 0.316 µM
[30] = second compound 3.16 µM, first compound 1 µM
[31] = second compound 3.16 µM, first compound 3.16 µM
[32] = second compound 3.16 µM, first compound 10 µM
[33] = second compound 10 µM, first compound 0.316 µM
[34] = second compound 10 µM, first compound 1 µM
[35] = second compound 10 µM, first compound 3.16 µM
[36] = second compound 10 µM, first compound 10 µM
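Further: spheroids exposed to compounds for seven days before readout.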
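Wherever viability, T/C is given: 100% = DMSO vehicle control viability.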

CC[C@@]1(O)C(=O)OCc2c1cc1n(c2=O)Cc2cc3c(CN(C)C)c(O)ccc3nc2-1 + Nc1ccc(C#CCN(C(=O)Cc2ncc(C(F)(F)F)cc2C(F)(F)F)c2ccc(F)cc2)nn1
IC50 (second compound 0.0316 µM): > 0.1 µM
IC50 (second compound 0.1 µM): > 0.1 µM
IC50 (second compound 0.316 µM): > 0.1 µM
IC50 (second compound 1 µM): > 0.1 µM
IC50 (second compound 3.16 µM): > 0.1 µM
IC50 (second compound 10 µM): > 0.1 µM
viability, T/C (second compound 0.0316 µM, first compound 0.000316 µM): 104%
viability, T/C (second compound 0.0316 µM, first compound 0.001 µM): 99.7%
viability, T/C (second compound 0.0316 µM, first compound 0.00316 µM): 99.6%
viability, T/C (second compound 0.0316 µM, first compound 0.01 µM): 84.8%
viability, T/C [1]: 84.5%
viability, T/C [2]: 66.1%
viability, T/C (second compound 0.1 µM, first compound 0.000316 µM): 107%
viability, T/C (second compound 0.1 µM, first compound 0.001 µM): 99.6%
viability, T/C (second compound 0.1 µM, first compound 0.00316 µM): 93.3%
viability, T/C (second compound 0.1 µM, first compound 0.01 µM): 101%
viability, T/C [3]: 85.7%
viability, T/C [4]: 68.1%
viability, T/C (second compound 0.316 µM, first compound 0.000316 µM): 97.3%
viability, T/C (second compound 0.316 µM, first compound 0.001 µM): 101%
viability, T/C (second compound 0.316 µM, first compound 0.00316 µM): 89.6%
viability, T/C (second compound 0.316 µM, first compound 0.01 µM): 81.1%
viability, T/C [5]: 87.3%
viability, T/C [6]: 80.9%
viability, T/C (second compound 1 µM, first compound 0.000316 µM): 90.2%
viability, T/C (second compound 1 µM, first compound 0.001 µM): 104%
viability, T/C (second compound 1 µM, first compound 0.00316 µM): 101%
viability, T/C (second compound 1 µM, first compound 0.01 µM): 100%
viability, T/C [7]: 81.5%
viability, T/C [8]: 69.7%
viability, T/C (second compound 3.16 µM, first compound 0.000316 µM): 102%
viability, T/C (second compound 3.16 µM, first compound 0.001 µM): 99%
viability, T/C (second compound 3.16 µM, first compound 0.00316 µM): 126%
viability, T/C (second compound 3.16 µM, first compound 0.01 µM): 102%
viability, T/C [9]: 75.1%
viability, T/C [10]: 76.6%
viability, T/C (second compound 10 µM, first compound 0.000316 µM): 122%
viability, T/C (second compound 10 µM, first compound 0.001 µM): 119%
viability, T/C (second compound 10 µM, first compound 0.00316 µM): 116%
viability, T/C (second compound 10 µM, first compound 0.01 µM): 95%
viability, T/C [11]: 91.5%
viability, T/C [12]: 91%

COc1cc(C2c3cc4c(cc3C(OC3OC5COC(C)OC5C(O)C3O)C3COC(=O)C23)OCO4)cc(OC)c1O (stereo not drawn) + Nc1ccc(C#CCN(C(=O)Cc2ncc(C(F)(F)F)cc2C(F)(F)F)c2ccc(F)cc2)nn1
IC50 (second compound 0.0316 µM): > 10 µM
IC50 (second compound 0.1 µM): > 10 µM
IC50 (second compound 0.316 µM): > 10 µM
IC50 (second compound 1 µM): > 10 µM
IC50 (second compound 3.16 µM): > 10 µM
IC50 (second compound 10 µM): > 10 µM
viability, T/C [1]: 103%
viability, T/C [2]: 99.1%
viability, T/C [13]: 65.7%
viability, T/C [14]: 82.1%
viability, T/C [15]: 67.5%
viability, T/C [16]: 60%
viability, T/C [3]: 112%
viability, T/C [4]: 98.8%
viability, T/C [17]: 81%
viability, T/C [18]: 75.9%
viability, T/C [19]: 69.4%
viability, T/C [20]: 59.6%
viability, T/C [5]: 104%
viability, T/C [6]: 105%
viability, T/C [21]: 92.3%
viability, T/C [22]: 64.4%
viability, T/C [23]: 69.7%
viability, T/C [24]: 54%
viability, T/C [7]: 104%
viability, T/C [8]: 102%
viability, T/C [25]: 83.2%
viability, T/C [26]: 80%
viability, T/C [27]: 87.8%
viability, T/C [28]: 62.1%
viability, T/C [9]: 91.8%
viability, T/C [10]: 117%
viability, T/C [29]: 81.8%
viability, T/C [30]: 73.2%
viability, T/C [31]: 69.1%
viability, T/C [32]: 58.6%
viability, T/C [11]: 101%
viability, T/C [12]: 107%
viability, T/C [33]: 92.3%
viability, T/C [34]: 75%
viability, T/C [35]: 80.7%
viability, T/C [36]: 70.5%

Nc1ccn(C2OC(CO)C(O)C2(F)F)c(=O)n1 (stereo not drawn) + Nc1ccc(C#CCN(C(=O)Cc2ncc(C(F)(F)F)cc2C(F)(F)F)c2ccc(F)cc2)nn1
IC50 (second compound 0.0316 µM): < 0.0316 µM
IC50 (second compound 0.1 µM): < 0.0316 µM
IC50 (second compound 0.316 µM): < 0.0316 µM
IC50 (second compound 1 µM): < 0.0316 µM
IC50 (second compound 3.16 µM): < 0.0316 µM
IC50 (second compound 10 µM): < 0.0316 µM
viability, T/C [1]: 33.7%
viability, T/C [2]: 33.4%
viability, T/C [13]: 39.8%
viability, T/C [14]: 33.9%
viability, T/C [15]: 56%
viability, T/C [16]: 37.3%
viability, T/C [3]: 34.5%
viability, T/C [4]: 35.1%
viability, T/C [17]: 38.2%
viability, T/C [18]: 32.4%
viability, T/C [19]: 37.5%
viability, T/C [20]: 47.1%
viability, T/C [5]: 32.5%
viability, T/C [6]: 38.7%
viability, T/C [21]: 39.3%
viability, T/C [22]: 35.9%
viability, T/C [23]: 35.1%
viability, T/C [24]: 34.3%
viability, T/C [7]: 43.1%
viability, T/C [8]: 39.9%
viability, T/C [25]: 45.2%
viability, T/C [26]: 39.8%
viability, T/C [27]: 43.3%
viability, T/C [28]: 37.6%
viability, T/C [9]: 44.7%
viability, T/C [10]: 34.4%
viability, T/C [29]: 35.4%
viability, T/C [30]: 60.7%
viability, T/C [31]: 46.2%
viability, T/C [32]: 35.6%
viability, T/C [11]: 62.4%
viability, T/C [12]: 28.1%
viability, T/C [33]: 34.5%
viability, T/C [34]: 47.7%
viability, T/C [35]: 50.4%
viability, T/C [36]: 37.6%

O=c1[nH]cc(F)c(=O)[nH]1 + Nc1ccc(C#CCN(C(=O)Cc2ncc(C(F)(F)F)cc2C(F)(F)F)c2ccc(F)cc2)nn1
IC50 (second compound 0.0316 µM): > 10 µM
IC50 (second compound 0.1 µM): > 10 µM
IC50 (second compound 0.316 µM): > 10 µM
IC50 (second compound 1 µM): > 10 µM
IC50 (second compound 3.16 µM): > 10 µM
IC50 (second compound 10 µM): > 10 µM
viability, T/C [1]: 112%
viability, T/C [2]: 105%
viability, T/C [13]: 93.2%
viability, T/C [14]: 87.1%
viability, T/C [15]: 94.2%
viability, T/C [16]: 70.3%
viability, T/C [3]: 102%
viability, T/C [4]: 108%
viability, T/C [17]: 101%
viability, T/C [18]: 105%
viability, T/C [19]: 93.3%
viability, T/C [20]: 81.2%
viability, T/C [5]: 103%
viability, T/C [6]: 106%
viability, T/C [21]: 107%
viability, T/C [22]: 92.7%
viability, T/C [23]: 94.7%
viability, T/C [24]: 82.4%
viability, T/C [7]: 93.5%
viability, T/C [8]: 115%
viability, T/C [25]: 99.2%
viability, T/C [26]: 110%
viability, T/C [27]: 105%
viability, T/C [28]: 80.6%
viability, T/C [9]: 100%
viability, T/C [10]: 107%
viability, T/C [29]: 101%
viability, T/C [30]: 110%
viability, T/C [31]: 103%
viability, T/C [32]: 82.2%
viability, T/C [11]: 128%
viability, T/C [12]: 112%
viability, T/C [33]: 120%
viability, T/C [34]: 108%
viability, T/C [35]: 104%
viability, T/C [36]: 94.1%
